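Briefly, cells in 96-well plates were exposed to five compound concentrations for 48 h, and endpoints were estimated by linear interpolation. Definition used: TGI = concentration required for complete inhibition of growth.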
Assays:
Experiment in all cases: NCI tumour cell line growth inhibition, 48 h
[1] = system: BT-549 breast
[2] = system: CCRF-CEM leukemia
[3] = system: DU-145 prostate
[4] = system: EKVX NSCLC
[5] = system: HCC-2998 colon
[6] = system: HL-60(TB) leukemia
[7] = system: IGROV1 ovarian
[8] = system: LOX IMVI melanoma
[9] = system: M14 melanoma
[10] = system: NCI-H460 lung
[11] = system: RXF 393 renal
[12] = system: SK-MEL-2 melanoma
[13] = system: SNB-19 CNS
[14] = system: SR leukemia
[15] = system: T-47D breast
[16] = system: TK-10 renal
[17] = system: UACC-257 melanoma
[18] = system: UACC-62 melanoma
[19] = system: MDA-MB-435
[20] = system: CAKI-1 renal

SMILES | TGI [1] | TGI [2] | TGI [3] | TGI [4] | TGI [5] | TGI [6] | TGI [7] | TGI [8] | TGI [9] | TGI [10] | TGI [11] | TGI [12] | TGI [13] | TGI [14] | TGI [15] | TGI [16] | TGI [17] | TGI [18] | TGI [19] | TGI [20]
O=c1cc(-c2ccccc2)[nH]c2cc3c(cc12)OCO3 | > 100 µM | > 100 µM | > 100 µM | > 100 µM | 55.6 µM | 53 µM | > 100 µM | > 100 µM | > 80.2 µM | > 57.8 µM | 17.2 µM | > 93.2 µM | > 100 µM | 67.4 µM | > 100 µM | > 94 µM | > 100 µM | > 90.7 µM |  | 
Cc1cccc2c1Oc1cc(Cl)ccc1C2NC(=O)CCN1CCOCC1 (configuration not stated) | > 100 µM | > 100 µM | > 100 µM | > 100 µM | > 100 µM | > 100 µM | > 100 µM | > 100 µM | > 100 µM | > 100 µM |  |  | > 100 µM | > 100 µM | > 100 µM | > 100 µM | > 100 µM | > 100 µM | > 100 µM | 
O=C(O)c1ccc(NNc2cc(=O)[nH]c(=O)[nH]2)cc1 | > 100 µM | > 100 µM | > 100 µM | > 100 µM | > 100 µM | > 100 µM | > 100 µM | > 100 µM | > 100 µM | > 100 µM | > 100 µM | > 100 µM | > 100 µM | > 100 µM | > 100 µM | > 100 µM | > 100 µM | > 100 µM |  | 
CC1(C)c2ccccc2C(=O)C12CCC(=O)CC2 | > 100 µM | > 100 µM | > 100 µM | > 100 µM | > 100 µM | > 100 µM | > 100 µM | > 100 µM | > 100 µM | > 100 µM | 96 µM | > 100 µM | > 100 µM | > 100 µM | > 100 µM | > 100 µM | > 100 µM | > 100 µM |  | > 100 µM
COc1ccc2c(c1)CCc1c-2[nH]c2ccc(OC)cc12 | > 100 µM | 97.7 µM | > 100 µM | > 100 µM | > 100 µM |  | > 100 µM | > 100 µM | > 100 µM | > 100 µM |  | > 100 µM | > 100 µM | > 100 µM | > 100 µM | > 100 µM | > 100 µM | > 100 µM | > 100 µM | > 100 µM
CCOC(=O)c1nc2c(Cl)c3ncccc3cc2[nH]c1=O | 94.7 µM | > 100 µM | > 100 µM | > 100 µM | 43.8 µM | > 100 µM | > 100 µM |  | > 100 µM | 65.8 µM | > 100 µM | > 100 µM | > 100 µM | > 100 µM |  | > 100 µM | > 100 µM | 50.4 µM | > 100 µM | > 100 µM
C=CCN1C[C@H](C)N([C@H](c2ccc(C(=O)N(CC)CCO)cc2)c2cccc(OC)c2)C[C@H]1C | > 100 µM |  | > 100 µM | > 100 µM |  | > 100 µM | > 100 µM |  | > 100 µM |  |  | > 100 µM | > 100 µM | > 100 µM | > 100 µM | > 100 µM | > 100 µM | > 100 µM | > 100 µM | > 100 µM
COc1cc(/C=C2\C[C@H]3[C@@H]4CC=C5C[C@@H](O)CC[C@]5(C)[C@H]4CC[C@]3(C)C2=O)cc(OC)c1OC | > 100 µM |  | > 100 µM | > 100 µM | 98.1 µM | 2.25 µM | > 100 µM | 53.8 µM | 81.8 µM | > 100 µM | 58 µM | 65.4 µM | > 100 µM |  | 64.2 µM | > 100 µM | > 100 µM | > 100 µM | > 100 µM | > 100 µM
COc1ccc2c(c1)CN1C(=N2)CSC1c1cc([N+](=O)[O-])ccc1Cl (configuration not stated) | > 100 µM |  |  | > 100 µM | 58.7 µM | 45.8 µM | > 100 µM | > 100 µM | > 100 µM | > 100 µM | > 100 µM | > 100 µM | > 100 µM | > 100 µM | > 100 µM | > 100 µM | > 100 µM | 57.5 µM | > 100 µM | > 100 µM
CCN1c2nc3ccccc3nc2N(CC)c2nc3ccccc3nc21 | > 100 µM | > 100 µM | > 100 µM | > 100 µM | > 100 µM | > 100 µM | > 100 µM | > 100 µM | > 100 µM | > 100 µM | > 100 µM | > 100 µM | > 100 µM | > 100 µM |  | > 100 µM |  | > 100 µM | > 100 µM | > 100 µM

Reference: PubChem BioAssay (NCI)
